In the supplement of paper PMC10307832:

Columns and labels:
Assay in all cases: relative viability (nuclei count vs DMSO), 5 days (fraction); higher = more cells survive
[1] = compound: CN(C)C[C@@H]1CCn2cc(c3ccccc32)C2=C(C(=O)NC2=O)c2cn(c3ccccc23)CCO1 [Ruboxistaurin] + CC(=O)Nc1cccc(-n2c(=O)n(C3CC3)c(=O)c3c(Nc4ccc(I)cc4F)n(C)c(=O)c(C)c32)c1 [Trametinib] (partner 0.02 µM)
Procedure, shortened: (§1)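 A single step with final 0.05% Triton X-100, 1% formaldehyde and 1 ug/ml Hoechst fixed the cells and stained nuclei 5 days after treatment. Lung cancer cell lines in 1536-well plates had been treated by pin tool the day after seeding with one drug alone or a fixed anchor-drug dose plus five library-drug doses (not always all listed) in √10 steps, and nuclei were counted on 4× images. Relative viability is the ratio of nuclei in treated wells to nuclei in vehicle wells, taken as the median of duplicate plates.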

[2] = compound: CN(C)C[C@@H]1CCn2cc(c3ccccc32)C2=C(C(=O)NC2=O)c2cn(c3ccccc23)CCO1 [Ruboxistaurin] + CC1(C)CCC(c2ccc(Cl)cc2)=C(CN2CCN(c3ccc(C(=O)NS(=O)(=O)c4ccc(N[C@H](CCN5CCOCC5)CSc5ccccc5)c(S(=O)(=O)C(F)(F)F)c4)cc3)CC2)C1 [Navitoclax] (partner 0.5 µM)
Procedure, shortened: as §1

Ruboxistaurin + OSI-027 = compound: CN(C)C[C@@H]1CCn2cc(c3ccccc32)C2=C(C(=O)NC2=O)c2cn(c3ccccc23)CCO1 [Ruboxistaurin] + COc1cccc2cc(-c3nc([C@H]4CC[C@H](C(=O)O)CC4)n4ncnc(N)c34)[nH]c12 [OSI-027] (partner 0.5 µM)
Procedure, shortened: as §1

[3] = compound: CN(C)C[C@@H]1CCn2cc(c3ccccc32)C2=C(C(=O)NC2=O)c2cn(c3ccccc23)CCO1 [Ruboxistaurin] + Cc1cc(Nc2cc(N3CCN(C)CC3)nc(Sc3ccc(NC(=O)C4CC4)cc3)n2)n[nH]1 [Tozasertib] (partner 0.1 µM)
Procedure, shortened: as §1

Ruboxistaurin + Olaparib = compound: CN(C)C[C@@H]1CCn2cc(c3ccccc32)C2=C(C(=O)NC2=O)c2cn(c3ccccc23)CCO1 [Ruboxistaurin] + O=C(c1cc(Cc2n[nH]c(=O)c3ccccc23)ccc1F)N1CCN(C(=O)C2CC2)CC1 [Olaparib] (partner 8 µM)
Procedure, shortened: as §1

Row | Cell Line | relative viability ([1]; first compound 0.08 µM) | relative viability ([1]; first compound 0.8 µM) | relative viability ([1]; first compound 2.53 µM) | relative viability ([1]; first compound 8 µM) | relative viability ([2]; first compound 0.08 µM) | relative viability ([2]; first compound 0.8 µM) | relative viability ([2]; first compound 2.53 µM) | relative viability ([2]; first compound 8 µM) | relative viability (Ruboxistaurin + OSI-027; first compound 0.08 µM) | relative viability (Ruboxistaurin + OSI-027; first compound 0.8 µM) | relative viability (Ruboxistaurin + OSI-027; first compound 2.53 µM) | relative viability (Ruboxistaurin + OSI-027; first compound 8 µM) | relative viability ([3]; first compound 0.08 µM) | relative viability ([3]; first compound 0.8 µM) | relative viability ([3]; first compound 2.53 µM) | relative viability ([3]; first compound 8 µM) | relative viability (Ruboxistaurin + Olaparib; first compound 0.08 µM) | relative viability (Ruboxistaurin + Olaparib; first compound 0.8 µM) | relative viability (Ruboxistaurin + Olaparib; first compound 2.53 µM) | relative viability (Ruboxistaurin + Olaparib; first compound 8 µM)
1 | NCI-H1666 | 0.903 | 0.795 | 0.865 | 0.877 | 1.12 | 0.679 | 1.1 | 0.931 | 0.885 | 0.785 | 0.929 | 0.759 | 0.653 | 0.571 | 0.582 | 0.503 | 0.832 | 0.751 | 0.786 | 0.764
2 | NCI-H1734 | 0.724 | 0.613 | 0.691 | 0.58 | 0.964 | 0.671 | 0.857 | 0.745 | 0.628 | 0.411 | 0.56 | 0.385 | 0.282 | 0.224 | 0.249 | 0.243 | 0.647 | 0.518 | 0.601 | 0.514
3 | NCI-H1755 | 0.804 | 0.713 | 0.744 | 0.771 | 1.05 | 0.934 | 0.963 | 0.962 | 0.714 | 0.621 | 0.614 | 0.549 | 0.608 | 0.55 | 0.555 | 0.525 | 0.974 | 0.853 | 0.846 | 0.775
4 | NCI-H1793 | 0.444 |  | 0.497 | 0.517 | 0.503 | 0.382 | 0.468 | 0.604 | 0.262 | 0.239 | 0.273 | 0.265 | 0.346 | 0.242 | 0.408 | 0.301 | 0.875 |  | 1.17 | 0.873
5 | NCI-H1915 | 0.324 | 0.292 | 0.303 | 0.285 | 0.811 | 0.752 | 0.765 | 0.867 | 0.645 | 0.489 | 0.505 | 0.363 | 0.456 | 0.397 | 0.396 | 0.375 | 0.241 | 0.26 | 0.268 | 0.25
6 | NCI-H1944 | 0.402 | 0.312 | 0.395 | 0.358 | 1.08 | 1 | 1.04 | 1.09 | 0.411 | 0.334 | 0.404 | 0.271 | 0.249 | 0.206 | 0.239 | 0.237 | 0.422 | 0.353 | 0.38 | 0.393
7 | NCI-H1975 | 0.573 | 0.336 | 0.416 | 0.331 | 1.2 | 1.04 | 1.25 | 0.996 | 0.751 | 0.578 | 0.645 | 0.502 | 0.851 | 0.54 | 0.384 | 0.189 | 0.882 | 0.784 | 0.788 | 0.713
8 | NCI-H1993 | 0.486 | 0.43 | 0.51 | 0.467 | 1.08 | 0.919 | 0.994 | 0.689 | 0.6 | 0.479 | 0.543 | 0.531 | 0.574 | 0.541 | 0.568 | 0.538 | 1.01 | 0.959 | 1.19 | 0.538
